According to patent US9334238B2, “N-substituted pyridinylidenes for combating animal pests” (BASF SE, priority 2012, dated 2016):

Experiments:
Format in all cases: in vivo
[1] = system: vetch aphid (Megoura viciae); assay: Vetch aphid contact/systemic test, broad bean leaf disks; settings: foliar, 120 h, 2500 ppm sprayed onto leaf disks, adult aphids, 5 days, read-out: mortality in comparison with untreated controls
Experimental: B.3 Vetch Aphid (Megoura viciae)
For evaluating control of vetch aphid (Megoura viciae) through contact or systemic means the test unit consisted of 24-well-microtiter plates containing broad bean leaf disks.
The compounds were formulated using a solution containing 75% v/v water and 25% v/v DMSO. Different concentrations of formulated compounds were sprayed onto the leaf disks at 2.5 μl, using a custom built micro atomizer, at two replications.
After application, the leaf disks were air-dried and 5-8 adult aphids placed on the leaf disks inside the microtiter plate wells. The aphids were then allowed to suck on the treated leaf disks and incubated at about 23±1° C. and about 50±5% relative humidity for 5 days. Aphid mortality and fecundity was then visually assessed.

[2] = system: Rice Green Leafhopper (Nephotettix virescens); assay: Rice green leafhopper test, sprayed rice seedlings; settings: 500 ppm spray on rice seedlings, adults, after 72 hours, read-out: mortality in comparison with untreated controls
Experimental: B.5 Rice Green Leafhopper (Nephotettix virescens)
Rice seedlings were cleaned and washed 24 hours before spraying. The active compounds were formulated in 50:50 acetone:water (vol:vol), and 0.1% vol/vol surfactant (EL 620) wss added. Potted rice seedlings were sprayed with 5 ml test solution, air dried, placed in cages and inoculated with 10 adults. Treated rice plants were kept at about 28-29° C. and relative humidity of about 50-60%. Percent mortality was recorded after 72 hours.

[3] = system: Cowpea Aphid (Aphis craccivora); assay: Cowpea aphid test, sprayed potted cowpea plants; settings: 500 ppm spray on infested cowpea plants, after 72 hours, read-out: mortality in comparison with untreated controls
Experimental: B.2 Cowpea Aphid (Aphis craccivora)
The active compound was dissolved at the desired concentration in a mixture of 1:1 (vol:vol) distilled water: acetone. Surfactant (Alkamuls® EL 620) was added at a rate of 0.1% (vol/vol). The test solution was prepared at the day of use.
Potted cowpea plants were colonized with approximately 50-100 aphids of various stages by manually transferring a leaf tissue cut from infested plant 24 hours before application. Plants were sprayed after the pest population has been recorded. Treated plants were maintained on light carts at about 28° C. Percent mortality was assessed after 72 hours.

[4] = system: Orchid thrips (dichromothrips corbetti); assay: Orchid thrips floral-immersion test; settings: orchid flowers dipped, adult thrips, 72 hours after treatment, read-out: mortality in comparison with untreated controls
Experimental: B.4 Orchid thrips (dichromothrips corbetti)
Dichromothrips corbetti adults used for bioassay were obtained from a colony maintained continuously under laboratory conditions. For testing purposes, the test compound was diluted in a 1:1 mixture of acetone:water (vol:vol), plus 0.01% vol/vol Alkamuls® EL 620 surfactant.
Thrips potency of each compound was evaluated by using a floral-immersion technique. Plastic petri dishes were used as test arenas. All petals of individual, intact orchid flowers were dipped into treatment solution and allowed to dry. Treated flowers were placed into individual petri dishes along with about 20 adult thrips. The petri dishes were then covered with lids. All test arenas were held under continuous light and a temperature of about 28° C. for duration of the assay. After 3 days, the numbers of live thrips were counted on each flower, and along inner walls of each petri dish. The percent mortality was recorded 72 hours after treatment.

[5] = system: Mediterranean fruitfly (Ceratitis capitata); assay: Mediterranean fruitfly test, insect diet with eggs in microtiter plates; settings: 120 h, 2500 ppm sprayed onto insect diet, egg and larval mortality, 5 days, read-out: mortality in comparison with untreated controls
Experimental: B.7 Mediterranean Fruitfly (Ceratitis capitata)
For evaluating control of Mediterranean fruitfly (Ceratitis capitata) the test unit consists of microtiter plates containing an insect diet and 50-80 C. capitata eggs.
The compounds were formulated using a solution containing 75% v/v water and 25% v/v DMSO. Different concentrations of formulated compounds were sprayed onto the insect diet at 5 μl, using a custom built micro atomizer, at two replications.
After application, microtiter plates were incubated at about 28±1° C. and about 80±5% relative humidity for 5 days. Egg and larval mortality was then visually assessed.

[6] = system: Rice Brown Plant Hopper (Nilaparvata lugens); assay: Rice brown plant hopper test, sprayed rice seedlings; settings: 500 ppm spray on rice seedlings, adults, after 72 hours, read-out: mortality in comparison with untreated controls
Experimental: B.6 Rice Brown Plant Hopper (Nilaparvata lugens)
Rice seedlings were cleaned and washed 24 hours before spraying. The active compounds was formulated in 50:50 acetone:water (vol:vol) and 0.1% vol/vol surfactant (EL 620) was added. Potted rice seedlings were sprayed with 5 ml test solution, air dried, placed in cages and inoculated with 10 adults. Treated rice plants were kept at about 28-29° C. and relative humidity of about 50-60%. Percent mortality was recorded after 72 hours.

[7] = system: green peach aphid (Myzus persicae); assay: Green peach aphid systemic test, artificial diet in 96-well microtiter plates; settings: 72 h, 2500 ppm in aphid diet, adult aphids, 3 days, read-out: mortality in comparison with untreated controls
Description: B.1 Green Peach Aphid (Myzus persicae)
For evaluating control of green peach aphid (Myzus persicae) through systemic means, the test unit consisted of 96-well-microtiter plates containing liquid artificial diet under an artificial membrane.
The compounds were formulated using a solution containing 75% v/v water and 25% v/v DMSO. Different concentrations of formulated compounds were pipetted into the aphid diet, using a custom built pipetter, at two replications.
After application, 5-8 adult aphids were placed on the artificial membrane inside the microtiter plate wells. The aphids were then allowed to suck on the treated aphid diet and incubated at about 23±1° C. and about 50±5% relative humidity for 3 days. Aphid mortality and fecundity was then visually assessed.

O=C(/C=C1\C=CC=CN1Cc1ccc(Cl)nc1)C(F)(F)F [E-1, (3E)-3-[1-[(6-chloro-3-pyridyl)methyl]-2-pyridylidene]-1,1,1-trifluoro-propan-2-one]
≥ 75%: mortality at 2500 ppm [1] | mortality at 500 ppm [2] | mortality at 500 ppm [3] | mortality at 500 ppm [4] | mortality at 2500 ppm [5] | mortality at 500 ppm [6] | mortality at 2500 ppm [7]
